Measurements published in patent publication US20240216395A1, “19-NOR C3,3-DISUBSTITUTED C21 -N-PYRAZOLYL STEROID FOR USE IN TREATING MAJOR DEPRESSIVE DISORDER AND […]” (priority 2021, published 2024).

Experiments:
[1] = system: synaptic and extrasynaptic GABAA receptors; conditions: in vitro; cited from earlier work
[2] = system: adult female subjects with severe postpartum depression (PPD); assay: Phase 3 placebo-controlled study of Compound (1) 30 mg QD for 14 days in PPD (NCT02978326, ROBIN): efficacy and post hoc analyses; format: in vivo, human
Experimental: Example 4. A Multicenter, Randomized, Double-Blind, Parallel-Group, Placebo-Controlled Study Evaluating the Efficacy, Safety, and Pharmacokinetics of Compound (1) in the Treatment of Adult Female Subjects with Severe Postpartum Depression
This was a multicenter, randomized, double-blind, parallel-group, placebo-controlled study of the efficacy, safety, and pharmacokinetics of Compound (1) in adult subjects diagnosed with severe PPD.
Randomized subjects received 30 mg QD of study drug (Compound (1) Capsules or placebo). Those subjects who could not tolerate 30 mg QD will received 20 mg QD for the remainder of the Treatment Period. Subjects who experienced intolerable adverse events (AEs) at the 20 mg QD dose level could be discontinued from study treatment at the discretion of the Investigator. Subjects were instructed to take the study drug with food. Study drug was self-administered by subjects in the evening (8:00 pm±30 min) on an outpatient basis for the entire 14-day Treatment Period. Study drug administration was monitored via a follow-up call from the site each evening (within approximately 1 hour following the scheduled evening dose) on Days 1 to 14.
The primary efficacy endpoint was the change from baseline in HAM-D total score at the end of the Treatment Period (Day 15). The HAM-D total score was calculated as the sum of the 17 individual item scores.
Secondary endpoints included: • Change from baseline in the HAM-D total score at all time points other than Day 15; • HAM-D Response defined as a 50% or greater reduction from baseline in HAM-D total score; • HAM-D Remission defined as a HAM-D total score of ≤7; • Change from baseline in MADRS total score at Day 15 and other time points; • CGI-I Response defined as “very much improved” or “much improved”; • Change from baseline in HAM-A total score at Day 15 and other time points; • Changes from baseline in HAM-D subscales and individual item scores at Day 15 and other time points
The change from baseline in HAM-D total score was analyzed using a mixed effects model for repeated measures (MMRM); the model included center, treatment, baseline HAM-D total score, assessment time point, and time point-by-treatment as explanatory variables. All post-baseline time points were included in the model. The primary comparison was between Compound (1) and placebo at the 15-day time point. Model-based point estimates (e.g., least squares [LS] means), 95% confidence intervals, and p-values were reported. An unstructured covariance structure was used to model the within-subject errors. Continuous secondary and other variables were analyzed using similar methods.
Binary efficacy endpoints, including responder and remission endpoints, were summarized and analyzed using the generalized estimating equation method.
As indicated in Example 4, women (N=151), ages 18-45, ≤6 months postpartum, diagnosed with PPD (defined as a major depressive episode with onset in the 3rd trimester or ≤4 weeks postpartum), and a baseline HAMD-17 total score ≥26, were randomized to study drug in an outpatient setting.
Patients were randomized 1:1 to receive oral Compound (1) 30 mg or placebo once daily for 14 days, with 4 weeks follow-up. The change from baseline (CFB) vs placebo in HAMD-17 at Day 15 was the primary endpoint. Treatment emergent adverse events (TEAEs) were assessed throughout the study.
Post hoc analyses explored concurrent anxiety and depression improvement using a combination of scales at Days 15 and 45: (1) HAMD-17≤7+HAM-A≤7, or (2) MADRS ≤10+HAM-A≤7. Depression improvement was defined as either a HAMD-17 total score ≤7, or a MADRS total score […]. Improvement in anxiety symptoms was defined as a HAM-A total score ≤7.
CFB in HAMD-17 total score was evaluated using the least-squares mean from a mixed effect model for repeated measures. […]

C[C@@]1(O)CC[C@H]2[C@H](CC[C@@H]3[C@@H]2CC[C@]2(C)[C@@H](C(=O)Cn4cc(C#N)cn4)CC[C@@H]32)C1 [Compound (1), 1-(2-((3R,5R,8R,9R,10S,13S,14S,17S)-3-hydroxy-3,13-dimethylhexadecahydro-1H-cyclopenta[a]phenanthren-17-yl)-2-oxoethyl)-1H-pyrazole-4-carbonitrile]
GABAA receptor binding and current potentiation [1]: bind to both synaptic and extrasynaptic GABAA receptors, potentiating both phasic and tonic currents | HAMD-17 early insomnia item mean reduction from baseline [2]: −1.3 | HAMD-17 late insomnia item mean reduction from baseline [2]: −1.3 | HAMD-17 middle insomnia item mean reduction from baseline [2]: −1.3 | EPDS-3A least square mean CFB ([2]; Day 8): −2.2 | Concurrent improvement HAMD-17 ≤ 7 and HAM-A ≤ 7, OR (95% CI) vs placebo ([2]; Day 15): 2.75 (1.30, 5.84) | Concurrent improvement MADRS ≤ 10 and HAM-A ≤ 7, OR (95% CI) vs placebo ([2]; Day 15): 2.35 (1.15, 4.80) | LS mean difference vs placebo (as printed after HAMD-17 CFB) ([2]; Day 15): −2.4 | MADRS Remission rate ([2]; Day 15): 54.1% | MADRS Response rate ([2]; Day 15): 73.0% | HAMD-17 total score CFB ([2]; Day 15 (primary endpoint)): −17.8 | Concurrent improvement HAMD-17 ≤ 7 and HAM-A ≤ 7, OR (95% CI) vs placebo ([2]; Day 45): 3.45 (1.66, 7.16) | Concurrent improvement MADRS ≤ 10 and HAM-A ≤ 7, OR (95% CI) vs placebo ([2]; Day 45): 3.09 (1.50, 6.36) | EPDS-3A least square mean CFB ([2]; Day 45): −3.6 | HAM-A Remission rate ([2]; day 3): 27.0% | HAMD-17-Ins CFB, Compound (1)-placebo difference ([2]; day 3): −0.841 | HAMD-17 A/S least squares mean CFB ([2]; day 3): −3.8 | HAM-A Response rate ([2]; day 8): 69.3% | EPDS remission (<13) rate ([2]; day 15): 64% | HAMD-17 A/S Response rate ([2]; day 15): 68.9% | HAMD-17 Remission rate ([2]; day 15): 45% | HAMD-17 Response rate ([2]; day 15): 72% | NNT for EPDS remission <13 ([2]; day 15): 6 | NNT, rapid outcomes ([2]; day 15): 5 | HAMD-17 A/S least squares mean CFB ([2]; day 45): −5.7 | NNT, sustained outcomes ([2]; day 45): 5 | PHQ-9 total score least squares mean decrease ([2]; day 45): −11.8 | SF-36v2 domains (SF, MH, PF, RP, BP) and MCS vs placebo ([2]; day 45): statistically significant improvements | Sustained HAMD-17 Remission rate ([2]; days 15 and 45): 37% | Sustained HAMD-17 Response rate ([2]; days 15 and 45): 59%
